Laboratory results: US9284283B2, “Macrocyclic compounds for modulating IL-17” (ENSEMBLE THERAPEUTICS CORPORATION, priority 2012, dated 2016)

Biological target: T1, biotinylated human IL-17 (binding to IL17R/Fc) (Homo sapiens, UniProt Q16552)
T1 construct: purchased R&D Systems 317-ILB (IL-17, biotinylated); 177-IR (IL17R/Fc)
T1 sequence (Q16552 20-155 limits assumed): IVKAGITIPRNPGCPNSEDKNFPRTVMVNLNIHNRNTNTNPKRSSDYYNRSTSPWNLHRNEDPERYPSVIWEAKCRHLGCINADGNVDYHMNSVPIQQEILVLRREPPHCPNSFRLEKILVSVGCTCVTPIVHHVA
Assay: IL-17 competition ELISA II (captured IL17R/Fc, biotinylated IL-17)
Protocol: In this version, a high binding 96-well plate (Costar #9018) was coated with 20 nM of goat anti-human IgG (KPL 01-10-02) in PBS, 100 μL/well, for 30 min at 37° C. followed by 5 min at 4° C. The plate was then washed in PBST (PBS/0.05% Tween-20) on a plate washer, (BioTek ELx450) then blocked with protein-free blocking buffer (Thermo Scientific #37573) in 250 μL/well for 30 min on a shaker at room temperature, and then washed again. IL17R/Fc (R&D Systems #177-IR; 10 nM in PBST, 100 μL/well) was then added to all wells. The plate was then incubated for 30 minutes at room temperature on the shaker.
While the receptor capture step was underway, compound dilutions were prepared in PBST to a concentration of 1 μM in 1.5 mL tubes. After the receptor capture step, the plate was washed and 50 μL PBST was added to the wells in row B down to row H. Then, 62.5 μL of the 1 μM compound dilutions were added to the wells of row A. From row A, 12.5 μL of the compound solution was removed and added to row B with mixing and this process of 5-fold dilutions was continued, by row, to row G. One of the wells in row A received only PBST (62.5 μL) and this dilution series served as the no competitor control. Then, going up from row G to row A, 50 μL of b-IL-17 (biotinylated human IL-17, R&D Systems #317-ILB; 20 nM) was added to all wells. Row H received 50 μL of PBST and served as the blank row, i.e., no compound and no b-IL-17. The plate was then incubated for 30 minutes at room temperature on the shaker.
After the wash, 100 μL Streptavidin-Horseradish Peroxidase (SA-HRP) (KPL #14-30-00) at 25 ng/mL in PBST was added to each well in the plate and the plate incubated for 30 minutes at room temperature followed by wash and 100 μL SureBlue™ TMB (KPL #52-00-03). After sufficient color development (approx 3-6 minutes), the reaction was fixed by the addition of 100 μL/well 0.5 N HCl and absorbance was measured at 450 nm on a BioTek Synergy 2 plate reader. The absorbances of ‘no competitor’ control and blank control should not exceed 1.5 A.U. and 0.06 A.U., respectively.
Data was processed using BioAssay Enterprise v10.1.4 (CambridgeSoft) software. Linear OD λ450 were plotted against log concentration (x) and fitted to a 4-parameter logistic equation. IC50 was calculated using positive ‘no competitor’ control data as an upper limit and blank control as a lower limit in each assay.

Row | SMILES | IC50
1 | O=C(O)CC[C@H]1NC(=O)[C@@H](Cc2ccc(NC(=O)[C@H](Cc3ccccc3Cl)NC(=O)C3(c4ccc(F)cc4)CC3)cc2)NC(=O)CC2(CCCC2)CC(=O)NCCCCCNC1=O [Compound 472] | < 100 nM
2 | O=C1CC2(CCCC2)CC(=O)N[C@H](Cc2ccc(NC(=O)[C@@H](NC(=O)Cc3cccc(O)c3)c3ccccc3)cc2)C(=O)NCCOCCOCCN1 [Compound 481] | 100 to 1000 nM
3 | O=C1CC2(CCCC2)CC(=O)N[C@H](Cc2ccc(NC(=O)[C@H](Cc3ccccc3Cl)NC(=O)C3(c4ccc(F)cc4)CC3)cc2)C(=O)N[C@H](CO)C(=O)NCCCCCN1 [Compound 482] | < 100 nM
4 | C[C@H]1NC(=O)[C@@H](Cc2ccc(NC(=O)[C@H](Cc3ccccc3Cl)NC(=O)Cc3cccc(O)c3)cc2)NC(=O)CC2(CCCC2)CC(=O)NCCCCCNC1=O [Compound 483] | < 100 nM
5 | C[C@H]1NC(=O)[C@@H](Cc2ccc(NC(=O)[C@H](Cc3ccccc3Cl)NC(=O)Cc3ccc(F)cc3)cc2)N(C)C(=O)CC2(CCCC2)CC(=O)NCCCCCNC1=O [Compound 486] | < 100 nM
6 | C[C@H]1NC(=O)[C@@H](Cc2cccc(NC(=O)[C@H](Cc3ccccc3Cl)NC(=O)Cc3ccc(F)cc3)c2)NC(=O)CC2(CCCC2)CC(=O)NCCCCCNC1=O [Compound 492] | 100 to 1000 nM
7 | Cc1cccc(CC(=O)N[C@@H](Cc2ccccc2Cl)C(=O)Nc2ccc(C[C@H]3NC(=O)CC4(CCCC4)CC(=O)NCCOCCOCCNC3=O)cc2)c1 [Compound 496] | < 100 nM
8 | CN1C(=O)CC2(CCCC2)CC(=O)NCCCCC#CCNC(=O)[C@H]1Cc1ccc(NC(=O)[C@H](Cc2ccccc2Cl)NC(=O)C2(c3ccc(F)cc3)CC2)cc1 [Compound 498] | 1000 to 10000 nM
9 | CN1C(=O)CC2(CCCC2)CC(=O)NCCOCCOCCNC(=O)[C@H]1Cc1ccc(NC(=O)[C@H](Cc2ccccc2Cl)NC(=O)C2(c3ccc(F)cc3)CC2)cc1 [Compound 504] | 100 to 1000 nM
10 | CN1C(=O)CC2(CCCC2)CC(=O)NCCCCCCCCNC(=O)[C@H]1Cc1ccc(NC(=O)[C@H](Cc2ccccc2Cl)NC(=O)C2(c3ccc(F)cc3)CC2)cc1 [Compound 505] | 1000 to 10000 nM
11 | Cc1ccc(C[C@H](NC(=O)C2(c3ccc(F)cc3)CC2)C(=O)Nc2ccc(C[C@H]3NC(=O)CC4(CCCC4)CC(=O)N(C)CCCCCNC(=O)[C@@H](C)NC3=O)cc2)c(C)c1 [Compound 509] | 100 to 1000 nM
12 | CN1C(=O)CC2(CCCC2)CC(=O)N[C@H](C(=O)O)CCCCNC(=O)[C@@H](C(C)(C)C)NC(=O)[C@H]1Cc1ccc(NC(=O)[C@H](Cc2ccccc2Cl)NC(=O)C2(c3ccc(F)cc3)CC2)cc1 [Compound 514] | 100 to 1000 nM
13 | C[C@H]1NC(=O)[C@@H](Cc2ccc(NC(=O)[C@H](Cc3ccccc3Cl)NC(=O)Cc3ccc(F)cc3)cc2)N(C)C(=O)CC2(CCCC2)CC(=O)NCCCCCN(C)C1=O [Compound 518] | < 100 nM
14 | O=C1CC2(CCCC2)CC(=O)N[C@H](Cc2ccc(NC(=O)[C@H](Cc3ccccc3Cl)NC(=O)c3ccc(F)cc3)cc2)C(=O)NCCOCCOCCN1 [Compound 521] | < 100 nM
15 | O=C1CNC(=O)[C@@H](Cc2ccc(NC(=O)[C@@H](Cc3ccccc3Cl)NC(=O)Cc3ccccc3)cc2)NC(=O)CC2(CCCC2)CC(=O)NCCCCCN1 [Compound 526] | 100 to 1000 nM
16 | NC(=O)CC[C@H]1NC(=O)[C@@H](Cc2ccc(NC(=O)[C@H](Cc3ccccc3Cl)NC(=O)C3(c4ccc(F)cc4)CC3)cc2)NC(=O)CC2(CCCC2)CC(=O)N[C@H](C(=O)O)CCCCNC1=O [Compound 527] | < 100 nM
17 | C[C@H]1NC(=O)[C@@H](Cc2ccc(NC(=O)[C@H](Cc3ccccc3Cl)NC(=O)Cc3ccc(F)cc3)cc2)NC(=O)CC2(CCCC2)CC(=O)NCCN2CCN(CC2)C1=O [Compound 534] | < 100 nM

Further lines, results first:

Row | IC50 | SMILES
18 | < 100 nM | O=C1CC2(CCCC2)CC(=O)N[C@H](Cc2ccc(NC(=O)[C@H](Cc3ccccc3Cl)NC(=O)NCc3ccccc3)cc2)C(=O)NCCOCCOCCN1 [Compound 463]
19 | < 100 nM | CNC(=O)N[C@@H](Cc1ccccc1Cl)C(=O)Nc1ccc(C[C@H]2NC(=O)CC3(CCCC3)CC(=O)NCCOCCOCCNC2=O)cc1 [Compound 464]
20 | < 100 nM | O=C1CC2(CCCC2)CC(=O)N[C@H](Cc2ccc(NC(=O)[C@H](Cc3ccccc3Cl)NC(=O)Cc3cccc(O)c3)cc2)C(=O)NCCNCCN1 [Compound 466]
21 | < 100 nM | CN1CCNC(=O)CC2(CCCC2)CC(=O)N[C@H](Cc2ccc(NC(=O)[C@H](Cc3ccccc3Cl)NC(=O)Cc3cccc(O)c3)cc2)C(=O)NCC1 [Compound 467]
22 | < 100 nM | CC(=O)N[C@@H](Cc1ccccc1Cl)C(=O)Nc1ccc(C[C@H]2NC(=O)CC3(CCCC3)CC(=O)NCCCCCNC(=O)[C@@H](C)NC2=O)cc1 [Compound 468]
23 | 100 to 1000 nM | CC(C)(C)[C@H]1NC(=O)[C@@H](Cc2ccc(NC(=O)[C@H](Cc3ccccc3Cl)NC(=O)C3(c4ccc(F)cc4)CC3)cc2)NC(=O)CC2(CCCC2)CC(=O)NCCCCCNC1=O [Compound 471]
24 | < 100 nM | CN1C(=O)CC2(CCCC2)CC(=O)NCCOCCOCCNC(=O)[C@H]1Cc1ccc(NC(=O)[C@H](Cc2ccccc2Cl)NC(=O)Cc2ccc(F)cc2)cc1 [Compound 477]
25 | < 100 nM | CN1CCNC(=O)CC2(CCCC2)CC(=O)N[C@H](Cc2ccc(NC(=O)[C@H](Cc3ccccc3Cl)NC(=O)NCc3ccccc3)cc2)C(=O)NCC1 [Compound 485]
26 | < 100 nM | C[C@H]1NC(=O)[C@@H](Cc2ccc(NC(=O)[C@H](Cc3ccccc3Cl)NC(=O)Cc3ccc(F)cc3)cc2)N(C)C(=O)CC2(CCCC2)CC(=O)N(C)CCCCCN(C)C1=O [Compound 489]
27 | 1000 to 10000 nM | CN1C(=O)CC2(CCCC2)CC(=O)NCCCCCC#CCNC(=O)[C@H]1Cc1ccc(NC(=O)[C@H](Cc2ccccc2Cl)NC(=O)C2(c3ccc(F)cc3)CC2)cc1 [Compound 491]
28 | < 100 nM | O=C(Cc1ccc(F)cc1)N[C@@H](Cc1ccccc1Cl)C(=O)Nc1ccc(C[C@H]2NC(=O)CC3(CCCC3)CC(=O)OCCCC/C=C/CNC2=O)cc1 [Compound 500]
29 | 1000 to 10000 nM | O=C1CNC(=O)[C@@H](Cc2ccc(NC(=O)[C@H](Cc3ccccc3Cl)NCc3ccccc3)cc2)NC(=O)CC2(CCCC2)CC(=O)NCCCCCN1 [Compound 503]
30 | 100 to 1000 nM | O=C1CC2(CCCC2)CC(=O)N[C@H](Cc2ccc(NC(=O)[C@H](Cc3ccccc3C(F)(F)F)NC(=O)C3(c4ccc(F)cc4)CC3)cc2)C(=O)NCCOCCOCCN1 [Compound 508]
31 | 100 to 1000 nM | Cc1ccc(C[C@H](NC(=O)C2(c3ccc(F)cc3)CC2)C(=O)Nc2ccc(C[C@H]3NC(=O)CC4(CCCC4)CC(=O)NCCOCCOCCNC3=O)cc2)c(C)c1 [Compound 510]
32 | < 100 nM | O=C1CNC(=O)[C@H](Cc2ccc(NC(=O)[C@H](Cc3ccccc3Cl)NC(=O)Cc3ccccc3)cc2)NC(=O)CC2(CCCC2)CC(=O)NCCCCCN1 [Compound 519]
33 | < 100 nM | C[C@H]1NC(=O)[C@@H](Cc2ccc(NC(=O)[C@H](Cc3ccccc3Cl)NC(=O)Cc3ccc(CO)cc3)cc2)NC(=O)CC2(CCCC2)CC(=O)NCc2cccc(c2)CNC1=O [Compound 520]
34 | < 100 nM | CN1CCCCCN(C)C(=O)[C@@H](Cc2ccccn2)NC(=O)[C@@H](Cc2ccc(NC(=O)[C@H](Cc3ccccc3Cl)NC(=O)Cc3ccc(F)cc3)cc2)NC(=O)CC2(CCCC2)CC1=O [Compound 524]
35 | < 100 nM | C[C@H]1NC(=O)[C@@H](Cc2ccc(NC(=O)[C@H](Cc3ccccc3Cl)NC(=O)c3ccc(F)cc3)cc2)NC(=O)CC2(CCCC2)CC(=O)N(C)CCCCCN(C)C1=O [Compound 525]
36 | < 100 nM | O=C1CC2(CCCC2)CC(=O)N[C@H](Cc2ccc(NC(=O)[C@H](Cc3ccc(F)cc3Cl)NC(=O)C(F)(F)c3ccccc3)cc2)C(=O)NCCOCCOCCN1 [Compound 530]
37 | 100 to 1000 nM | O=C1CC2(CCCC2)CC(=O)N[C@H](Cc2ccc(NC(=O)[C@H](Cc3ccccc3Cl)NC(=O)C(F)(F)c3ccccc3)cc2)C(=O)NCCN2CCN(CCN1)CC2 [Compound 531]
38 | 100 to 1000 nM | O=C1CC2(CCCC2)CC(=O)N[C@H](Cc2ccc(NC(=O)[C@H](Cc3ccccc3Cl)NC(=O)Cc3ccc(F)cc3)cc2)C(=O)NCCN2CCN(CCN1)CC2 [Compound 532]
39 | 100 to 1000 nM | C[C@H]1NC(=O)[C@@H](Cc2ccc(NC(=O)[C@H](Cc3ccccc3Cl)NC(=O)C(F)(F)c3ccccc3)cc2)NC(=O)CC2(CCCC2)CC(=O)NCCN2CCN(CC2)C1=O [Compound 533]
